Laboratory results reported in patent publication US20110171683A1, “METHODS AND COMPOSITIONS FOR ENUMERATING ANTIBIOTIC-RESISTANT MICROORGANISMS” (priority 2008, published 2011).

Tested on: methicillin-resistant Staphylococcus aureus strain 560
Experiment: Colony counts on PETRIFILM plates and blood agar plates containing cefoxitin or oxacillin
Assay type: cell-based
Details: conclusion in words from Tables 1 and 2
Experimental: PETRIFILM Aerobic Count Plates were obtained from 3M Company (St. Paul, Minn.). DIFCO dehydrated tryptic soy agar (TSA) was obtained from BD Diagnostics (Sparks, Md.). Defibrinated sheep blood was obtained from Remel, Inc. (Lenexa, Kans.).
Phosphate-buffered saline (PBS), pH 7.5, was prepared from a 10× concentrate (OmniPur 6505 buffered saline; EMD Chemicals, Inc.; Gibbstown, N.J.) and was sterilized by autoclaving. Antibiotic stock solutions were prepared in deionized water and were sterilized by passage through a 0.22 μm filter.
Sheep blood agar containing cefoxitin (SBA-Cf) was prepared to compare the recovery of antibiotic resistant microorganisms on agar media to the recovery of the antibiotic-resistant microorganisms in a thin-film culture device. Twenty grams of dehydrated TSA was mixed with 475 mL of deionized water and autoclaved. The molten agar was tempered at 50° C. Twenty-five milliliters of defibrinated sheep blood was added to the agar (to yield a final concentration of 5% sheep blood) and swirled to mix. Cefoxitin stock solution (0.5 mL of 4 mg/mL) was added to the agar and swirled to mix. […]
Bacterial strains were inoculated into tryptic soy broth and were incubated overnight at 37° C. […] All plates were incubated at 35° C. and the colonies on each plate were counted at 24±2 hours and 48±4 hours.

Row | Structure (SMILES) | Sensitivity or resistance of strain 560 to the antibiotic
1 | CO[C@@]1(NC(=O)Cc2cccs2)C(=O)N2C(C(=O)O)=C(COC(N)=O)CS[C@@H]21 [cefoxitin] | sensitive
2 | Cc1onc(-c2ccccc2)c1C(=O)N[C@@H]1C(=O)N2[C@@H]1SC(C)(C)[C@@H]2C(=O)O [oxacillin] | resistant
